From publication PMC9933715 (Antimicrobial Agents and Chemotherapy, 2023)

Key:
[1] = tested on: Huh7.5 cells; assay: Cell viability, CellTiter-Glo luminescent assay; details: deconvolution screen, singletons, 50 µM, uninfected Huh7.5
[2] = tested on: ZIKV-R2A (strain FSS13025); assay: microbe, parasite or virus in culture; format: cell-based; details: Zika virus, Huh7.5, 48 h, read-out: ZIKV-R2A replication (fold DMSO) Mean
[3] = tested on: DENV-R2A (Rluc-expressing DENV, serotype 2 strain 16681); assay: microbe, parasite or virus in culture; format: cell-based, Dengue virus; details: Dengue virus, Huh7.5, 48 h, read-out: DENV-R2A replication (fold DMSO) Mean, deconvolution screen, singletons, 50 µM, Huh7.5, 2 days postinfection

| SMILES | Cell viability (fold DMSO) Mean [1] [fold DMSO] | activity at 50 µM [2] [%] | activity at 50 µM [3] [%] |
| --- | --- | --- | --- |
| OC[C@@H]1Cc2ccccc2CN1 [PS-6029, OC[C@@H]1Cc2ccccc2CN1] | 0.97 | 114 | 99 |
| OCc1cc2c(cc1Br)OCO2 [Compound 10P-113, OCc1cc2OCOc2cc1Br] | 0.88 | 103 | 86 |
| Cc1ccnn1-c1ccccc1 [PS-4283, Cc1ccnn1c2ccccc2] | 1.07 | 106 | 104 |
| Nc1cccc(Cl)c1 [PS-5280, Nc1cccc(Cl)c1] | 0.98 | 116 | 111 |
| COc1ccc(CO)c(OC)c1 [PS-4550, COc1ccc(CO)c(OC)c1] | 0.92 | 34 | 31 |
| N#CCC(=O)Nc1ccccc1 [Compound 9B-046, O=C(CC#N)Nc1ccccc1] | 1.17 | 104 | 96 |
| O=C(O)[C@@H](O)c1ccc(Br)cc1 [SS-4660, O[C@H](C(=O)O)c1ccc(Br)cc1] | 1.10 | 102 | 104 |
| Nc1cnccc1Cl [PS-6061, Nc1cnccc1Cl] | 1.04 | 102 | 102 |
| COC(=O)[C@H]1CCC(=O)N1 [AS-7023, COC(=O)[C@H]1CCC(=O)N1] | 1.19 | 103 | 102 |
| Cc1ncccc1C(=O)O [PS-5559, Cc1ncccc1C(=O)O] | 0.92 | 104 | 102 |
| COc1cc(F)c(C#N)c(F)c1 [PS-6866, COc1cc(F)c(C#N)c(F)c1] | 1.01 | 115 | 97 |
| CC(C)(C)OC(=O)N1CCCCn2nc(CO)cc2C1 [Compound 10X-0603, CC(C)(C)OC(=O)N1CCCCn2nc(CO)cc2C1] | 1.07 | 104 | 106 |
| COc1ccccc1N1CCNC(C)C1 (stereo not drawn) [SS-2433, COc1ccccc1N2CCNC(C)C2] | 1.09 | 94 | 82 |
| Cc1ccnc2ccccc12 [PS-3771, Cc1ccnc2ccccc12] | 0.92 | 107 | 101 |
| Oc1ccc2[nH]ccc2c1 [PS-3277, Oc1ccc2[nH]ccc2c1] | 1.23 | 74 | 52 |
| CC(=O)Nc1cc(C)ccc1F [MS-0037, CC(=O)Nc1cc(C)ccc1F] | 1.28 | 114 | 103 |
| N[C@H]1CC[C@H](O)CC1 [PS-5466, N[C@@H]1CC[C@@H](O)CC1] | 0.99 | 115 | 96 |
| c1ccn(-c2cnccn2)c1 [Compound 6N-039, c1ccn(c1)c2cnccn2] | 0.93 | 99 | 95 |
| CC(N)c1cccnc1 (stereo not drawn) [PS-3055, CC(N)c1cccnc1] | 0.98 | 111 | 100 |
| CCNC(=O)N1CCC(O)CC1 [SS-4002, CCNC(=O)N1CCC(O)CC1] | 1.05 | 98 | 103 |
| Clc1ccc2nncn2c1 [GC-0731, Clc1ccc2nncn2c1] | 1.03 | 102 | 94 |
| Cc1cc(O)cc(O)n1 [PS-3153, Cc1cc(O)cc(O)n1] | 0.97 | 109 | 100 |

| SMILES | Cell viability (fold DMSO) Mean [1] [fold DMSO] | activity at 50 µM [2] [%] | activity at 50 µM [3] [%] |
| --- | --- | --- | --- |
| CC1(C)CC(O)CC(C)(C)N1 [PS-5856, CC1(C)CC(O)CC(C)(C)N1] | 1.06 | 110 | 97 |
| Cc1cnn2c(C3CC3)ccnc12 [Compound 7T-0305, Cc1cnn2c(ccnc12)C3CC3] | 1.06 | 111 | 108 |
| Nc1ccc(Cl)nn1 [PS-5236, Nc1ccc(Cl)nn1] | 1.18 | 108 | 108 |
| NC(=O)NCc1cccc(Cl)c1 [Compound 9M-050, NC(=O)NCc1cccc(Cl)c1] | 1.27 | 110 | 100 |
| Nc1oncc1-c1ccc(Cl)cc1 [FS-2048, Nc1oncc1c2ccc(Cl)cc2] | 0.90 | 61 | 57 |
| CC(=O)Nc1ccc(OC(F)F)cc1 [PS-6506, CC(=O)Nc1ccc(OC(F)F)cc1] | 1.10 | 110 | 105 |
| CC1CCN(Cc2ccc(Cl)nc2)CC1 [Compound 2X-0836, CC1CCN(Cc2ccc(Cl)nc2)CC1] | 1.16 | 104 | 89 |
| Cc1ccc(N2CCNC2=O)c(C)c1 [FA-0890, Cc1ccc(N2CCNC2=O)c(C)c1] | 1.08 | 112 | 99 |
| OCC1(c2ccc(Cl)cc2)CC1 [RS-1014, OCC1(CC1)c2ccc(Cl)cc2] | 1.07 | 93 | 84 |
| O=C(O)Cc1ccc(O)cc1 [PS-5568, OC(=O)Cc1ccc(O)cc1] | 0.98 | 103 | 97 |
| CNC(=O)Nc1ccc(F)c(C)c1 [MS-0046, CNC(=O)Nc1ccc(F)c(C)c1] | 1.00 | 97 | 96 |
| O=C1CCC(c2ccccc2)=NN1 [Compound 7L-571S, O=C1CCC(=NN1)c2ccccc2] | 0.99 | 124 | 107 |
| OCc1cccc(CO)n1 [PS-5751, OCc1cccc(CO)n1] | 0.90 | 113 | 100 |
| O=C1CCCc2cc(O)ccc21 [MS-2425, Oc1ccc2C(=O)CCCc2c1] | 1.05 | 92 | 98 |
| CCCC(=O)c1cccs1 [FS-1782, CCCC(=O)c1cccs1] | 1.02 | 104 | 104 |
| Cc1ccc(Br)c(N)c1 [PS-5668, Cc1ccc(Br)c(N)c1] | 1.16 | 101 | 102 |
| O=C1CCNc2c(F)cccc21 [PS-6636, Fc1cccc2C(=O)CCNc12] | 1.14 | 86 | 87 |
| O=C(C1CCNCC1)N1CCCC1 [PS-4906, O=C(C1CCNCC1)N2CCCC2] | 0.90 | 117 | 97 |
| C[C@@H](O)c1cccc(C(F)(F)F)c1 [PS-6325, C[C@@H](O)c1cccc(c1)C(F)(F)F] | 1.07 | 108 | 103 |
| NC(=O)c1ccco1 [Compound 2B-052, NC(=O)c1occc1] | 1.17 | 112 | 98 |
| Cc1cc2c(cc1C)NC(C)CC(=O)N2 (stereo not drawn) [Compound 12W-0869, CC1CC(=O)Nc2cc(C)c(C)cc2N1] | 1.09 | 97 | 85 |
| Nc1cncnc1 [SS-6051, Nc1cncnc1] | 0.96 | 105 | 104 |
